The text below walks through data of patent publication US20060229299A1, “5ht2c Receptor antagonists in the treatment of schizophrenia” (priority 2003, published 2006).

The target of data set [1] is α2-adrenoceptor. The following applies: human; cited from earlier work.
The subject of data set [2] is 5-HT2C/5-HT2A. Kind of data set: 5-HT2C/5-HT2A receptor affinity ratio. The format is binding, human. The following applies: Table 2; affinity ratio from data of Table 1.
Data set [3] relates to 5-HT2C receptor relative to 5-HT2A and D2 receptors. Kind of data set: Relative 5-HT2C affinity (formula I, sum of 5-HT2C/5-HT2A and 5-HT2C/D2 affinity ratios).
Data set [4] concerns the target D2-S (short form of D2 receptor) (Homo sapiens, UniProt P14416). The following applies: cited from earlier work.
The target in data set [5] is T1, D2-L (long form of D2 receptor) (Homo sapiens, UniProt P14416). To be noted: cited from earlier work.
T1 sequence (P14416 whole entry): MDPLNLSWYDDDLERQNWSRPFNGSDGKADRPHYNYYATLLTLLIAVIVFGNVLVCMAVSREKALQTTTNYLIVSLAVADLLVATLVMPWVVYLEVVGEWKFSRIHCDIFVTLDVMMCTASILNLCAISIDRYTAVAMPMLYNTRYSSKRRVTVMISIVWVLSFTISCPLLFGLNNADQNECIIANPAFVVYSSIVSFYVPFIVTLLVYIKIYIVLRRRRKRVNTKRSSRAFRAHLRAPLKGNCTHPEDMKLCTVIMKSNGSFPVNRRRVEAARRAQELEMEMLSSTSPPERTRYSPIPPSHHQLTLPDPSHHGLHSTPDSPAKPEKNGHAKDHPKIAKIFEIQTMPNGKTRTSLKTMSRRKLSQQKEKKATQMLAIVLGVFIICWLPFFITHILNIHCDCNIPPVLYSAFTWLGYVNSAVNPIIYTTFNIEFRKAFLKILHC
Data set [6] concerns the target D1 dopamine receptor (Homo sapiens, UniProt P21728). The following applies: cited from earlier work.
The subject of data set [7] is 5-HT2A/D2. Kind of data set: 5-HT2A/D2 receptor affinity ratio. The format is binding, human. The following applies: Table 2; affinity ratio from data of Table 1.
In data set [8] the target is T2, H1 histamine receptor (Homo sapiens, UniProt P35367). The following applies: cited from earlier work.
T2 sequence (P35367 whole entry): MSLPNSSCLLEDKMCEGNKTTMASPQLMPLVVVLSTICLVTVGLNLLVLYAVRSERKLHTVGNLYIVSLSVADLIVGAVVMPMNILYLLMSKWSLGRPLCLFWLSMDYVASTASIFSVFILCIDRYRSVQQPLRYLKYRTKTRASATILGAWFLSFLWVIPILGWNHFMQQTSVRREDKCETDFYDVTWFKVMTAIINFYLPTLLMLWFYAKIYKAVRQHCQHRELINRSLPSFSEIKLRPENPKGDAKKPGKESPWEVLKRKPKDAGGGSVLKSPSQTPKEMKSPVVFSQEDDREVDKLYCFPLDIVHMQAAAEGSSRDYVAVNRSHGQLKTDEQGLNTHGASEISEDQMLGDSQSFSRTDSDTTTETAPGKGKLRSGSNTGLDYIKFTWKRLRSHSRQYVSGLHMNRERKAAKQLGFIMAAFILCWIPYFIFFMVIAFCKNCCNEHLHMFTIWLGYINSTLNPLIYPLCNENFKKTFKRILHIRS
The subject of data set [9] is 5-HT2C/D2. Kind of data set: 5-HT2C/D2 receptor affinity ratio. It counts as binding, human. To be noted: Table 2; affinity ratio from data of Table 1.
Data set [10] deals with α1-adrenoceptor. To be noted: human; cited from earlier work.
Data set [11] deals with 5-HT6 receptor (Rattus norvegicus, UniProt P31388). The following applies: cited from earlier work.
Chain of 5-HT6 receptor (Rattus norvegicus, UniProt P31388) (P31388 whole entry): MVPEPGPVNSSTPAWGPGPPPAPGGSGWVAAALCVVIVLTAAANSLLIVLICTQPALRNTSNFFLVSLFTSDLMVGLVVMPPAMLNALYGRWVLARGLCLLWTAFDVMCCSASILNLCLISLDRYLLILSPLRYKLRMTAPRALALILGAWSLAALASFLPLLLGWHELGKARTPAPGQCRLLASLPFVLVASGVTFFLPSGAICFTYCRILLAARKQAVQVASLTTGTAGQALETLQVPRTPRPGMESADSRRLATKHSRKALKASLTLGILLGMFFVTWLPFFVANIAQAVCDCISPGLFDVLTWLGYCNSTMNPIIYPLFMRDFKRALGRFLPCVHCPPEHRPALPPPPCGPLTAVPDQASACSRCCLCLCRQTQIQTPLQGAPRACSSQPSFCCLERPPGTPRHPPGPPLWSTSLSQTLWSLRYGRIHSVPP
Data set [12] deals with mACh, muscarinic acetylcholine receptor. The following applies: human; cited from earlier work.
For data set [13], the target named is 5-HT3 receptor (Homo sapiens, UniProt P46098). To be noted: cited from earlier work.
Chain of 5-HT3 receptor (P46098 24-478): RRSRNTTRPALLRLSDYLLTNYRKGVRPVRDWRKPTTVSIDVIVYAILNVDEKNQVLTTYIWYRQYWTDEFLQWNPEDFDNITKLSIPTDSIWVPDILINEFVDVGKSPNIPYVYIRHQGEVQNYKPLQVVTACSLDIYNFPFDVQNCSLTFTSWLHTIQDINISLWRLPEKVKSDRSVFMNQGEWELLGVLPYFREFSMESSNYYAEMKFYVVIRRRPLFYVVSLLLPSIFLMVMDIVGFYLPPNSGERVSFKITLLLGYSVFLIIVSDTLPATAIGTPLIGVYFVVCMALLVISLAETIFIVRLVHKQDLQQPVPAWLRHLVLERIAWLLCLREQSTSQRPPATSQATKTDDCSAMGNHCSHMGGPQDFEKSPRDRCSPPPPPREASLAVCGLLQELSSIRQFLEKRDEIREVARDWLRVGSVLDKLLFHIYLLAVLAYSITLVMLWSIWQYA
Data set [14] addresses 5-HT1A receptor (Homo sapiens, UniProt P08908). To be noted: cited from earlier work.
Data set [15] relates to H1/D2. Kind of data set: H1/D2 receptor affinity ratio. To be noted: Table 2; affinity ratio from data of Table 1. It counts as binding, human.
In data set [16] the target is sigma, σ receptor. The following applies: human; cited from earlier work.
In data set [17] the target is 5-HT7 receptor (Rattus norvegicus, UniProt P32305). To be noted: cited from earlier work.
Chain of 5-HT7 receptor (Rattus norvegicus, UniProt P32305) (P32305 whole entry): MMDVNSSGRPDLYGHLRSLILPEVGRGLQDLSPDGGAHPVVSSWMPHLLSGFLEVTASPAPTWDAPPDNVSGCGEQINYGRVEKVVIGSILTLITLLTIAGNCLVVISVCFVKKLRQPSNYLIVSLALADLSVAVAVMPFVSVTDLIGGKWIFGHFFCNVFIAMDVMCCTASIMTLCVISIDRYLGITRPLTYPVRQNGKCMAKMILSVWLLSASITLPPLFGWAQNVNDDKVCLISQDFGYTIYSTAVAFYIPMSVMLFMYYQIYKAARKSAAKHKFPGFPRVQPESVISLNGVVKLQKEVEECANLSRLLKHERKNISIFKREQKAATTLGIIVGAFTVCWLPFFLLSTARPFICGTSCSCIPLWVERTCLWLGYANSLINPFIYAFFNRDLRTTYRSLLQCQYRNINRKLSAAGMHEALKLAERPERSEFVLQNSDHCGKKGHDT
Data set [18] addresses T3, D3 dopamine receptor (Homo sapiens, UniProt P35462). To be noted: cited from earlier work.
Data set [19] addresses sigma, σ receptor. To be noted: rat; cited from earlier work.
Data set [20] addresses T4, 5-HT1A receptor (Rattus norvegicus, UniProt P19327).
T4 sequence (P19327 1-422): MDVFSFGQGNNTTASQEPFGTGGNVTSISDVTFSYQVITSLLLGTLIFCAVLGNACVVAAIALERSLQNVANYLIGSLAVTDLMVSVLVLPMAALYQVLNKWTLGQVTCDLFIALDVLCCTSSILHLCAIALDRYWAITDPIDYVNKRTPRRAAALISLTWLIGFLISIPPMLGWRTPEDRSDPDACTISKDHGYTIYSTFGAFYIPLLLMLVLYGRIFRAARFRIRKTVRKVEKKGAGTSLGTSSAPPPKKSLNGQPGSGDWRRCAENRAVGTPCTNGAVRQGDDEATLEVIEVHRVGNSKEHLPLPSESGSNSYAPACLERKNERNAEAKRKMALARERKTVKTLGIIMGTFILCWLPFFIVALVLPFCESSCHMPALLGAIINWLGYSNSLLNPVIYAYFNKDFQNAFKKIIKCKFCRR
The following applies: cited from earlier work.

Data set [21] has as its target T5, 5-HT2C receptor (Homo sapiens, UniProt P28335).
T5 sequence (P28335 33-458): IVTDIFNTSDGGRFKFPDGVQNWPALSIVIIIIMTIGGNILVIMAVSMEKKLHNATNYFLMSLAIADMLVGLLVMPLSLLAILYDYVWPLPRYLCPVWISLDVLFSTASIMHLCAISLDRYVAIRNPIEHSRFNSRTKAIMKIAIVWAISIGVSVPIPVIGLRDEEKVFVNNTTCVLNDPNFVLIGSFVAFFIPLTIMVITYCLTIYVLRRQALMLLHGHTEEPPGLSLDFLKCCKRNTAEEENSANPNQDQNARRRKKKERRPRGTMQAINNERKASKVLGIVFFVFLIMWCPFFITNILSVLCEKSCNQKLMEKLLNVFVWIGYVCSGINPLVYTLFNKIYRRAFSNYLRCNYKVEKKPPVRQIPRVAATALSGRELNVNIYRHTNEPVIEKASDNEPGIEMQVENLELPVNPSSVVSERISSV
To be noted: cited from earlier work.

Data set [22] concerns the target α2-adrenoceptor. The following applies: rat; cited from earlier work.
Data set [23] concerns the target α1-adrenoceptor. The following applies: rat; cited from earlier work.
For data set [24], the target named is mACh, muscarinic acetylcholine receptor. The following applies: rat; cited from earlier work.
In data set [25] the target is α2-adrenoceptor. The following applies: ref 11 (human and for ritanserin data also rat); cited from earlier work.
Data set [26] addresses 5-HT2C receptor (UniProt P28335). To be noted: ref 11 (human and for ritanserin data also rat); cited from earlier work.
The target of data set [27] is D1 dopamine receptor. To be noted: ref 11 (human and for ritanserin data also rat); cited from earlier work.
Data set [28] concerns the target T2, H1 histamine receptor. The following applies: ref 11 (human and for ritanserin data also rat); cited from earlier work.
The target in data set [29] is T5, 5-HT2C receptor. The following applies: Table 3; expressed as pKi or pKd values; known affinities; cited from earlier work.
Data set [30] has as its target mACh, muscarinic acetylcholine receptor. To be noted: ref 11 (human and for ritanserin data also rat); cited from earlier work.
In data set [31] the target is 5-HT7 receptor (UniProt P34969). The following applies: ref 11 (human and for ritanserin data also rat); cited from earlier work.
The target of data set [32] is T3, D3 dopamine receptor. The following applies: ref 11 (human and for ritanserin data also rat); cited from earlier work.
In data set [33] the target is T1, D2-L (long form of D2 receptor). To be noted: ref 11 (human and for ritanserin data also rat); cited from earlier work.
The target of data set [34] is D2 receptor (Homo sapiens, UniProt P14416). The following applies: Table 3; expressed as pKi or pKd values; known affinities; cited from earlier work.
Chain of D2 receptor (P14416 whole entry): as the sequence (P14416 whole entry) above
Data set [35] addresses α1-adrenoceptor. To be noted: ref 11 (human and for ritanserin data also rat); cited from earlier work.
The target of data set [36] is sigma, σ receptor. The following applies: ref 11 (human and for ritanserin data also rat); cited from earlier work.
The conditions of data set [37]: Table 4A; grading of probability from literature reports; cited from earlier work.
Details of data set [38]: key: 1-high; 2-medium; 3-low probability. To be noted: Table 4A; grading of probability from literature reports; cited from earlier work.
On the set-up of data set [39]: key: 1-high; 2-medium; 3-low probability. The following applies: Table 4A; grading of probability from literature reports; cited from earlier work. This is another data set of the same source.
The target of data set [40] is sigma, σ receptor. The following applies: guinea-pig; cited from earlier work.
The target of data set [41] is 5-HT6 receptor (Homo sapiens, UniProt P50406). To be noted: cited from earlier work.
Chain of 5-HT6 receptor (Homo sapiens, UniProt P50406) (P50406 whole entry): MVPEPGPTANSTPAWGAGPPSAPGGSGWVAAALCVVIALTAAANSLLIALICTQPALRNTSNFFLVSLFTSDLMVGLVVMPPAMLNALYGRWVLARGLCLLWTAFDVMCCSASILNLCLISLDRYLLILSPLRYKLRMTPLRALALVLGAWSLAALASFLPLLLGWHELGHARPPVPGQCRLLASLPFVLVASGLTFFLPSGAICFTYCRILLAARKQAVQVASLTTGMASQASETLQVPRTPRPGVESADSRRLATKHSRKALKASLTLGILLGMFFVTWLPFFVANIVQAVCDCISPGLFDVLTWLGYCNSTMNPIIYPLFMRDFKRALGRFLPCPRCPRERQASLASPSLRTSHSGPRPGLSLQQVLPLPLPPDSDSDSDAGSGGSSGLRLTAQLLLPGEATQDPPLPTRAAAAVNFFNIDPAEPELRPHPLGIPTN
On the set-up of data set [42]: key: 1-high; 2-medium; 3-low probability. The following applies: Table 4A; grading of probability from literature reports; cited from earlier work. The source holds these as a separate data set.
Where [43] appears, read: Table 2, sum of affinity ratios from data of Table 1.

Structures are written as SMILES. Read-outs that look alike come from different tables or passages of the source.

Chain of D1 dopamine receptor (Homo sapiens, UniProt P21728) (P21728 whole entry): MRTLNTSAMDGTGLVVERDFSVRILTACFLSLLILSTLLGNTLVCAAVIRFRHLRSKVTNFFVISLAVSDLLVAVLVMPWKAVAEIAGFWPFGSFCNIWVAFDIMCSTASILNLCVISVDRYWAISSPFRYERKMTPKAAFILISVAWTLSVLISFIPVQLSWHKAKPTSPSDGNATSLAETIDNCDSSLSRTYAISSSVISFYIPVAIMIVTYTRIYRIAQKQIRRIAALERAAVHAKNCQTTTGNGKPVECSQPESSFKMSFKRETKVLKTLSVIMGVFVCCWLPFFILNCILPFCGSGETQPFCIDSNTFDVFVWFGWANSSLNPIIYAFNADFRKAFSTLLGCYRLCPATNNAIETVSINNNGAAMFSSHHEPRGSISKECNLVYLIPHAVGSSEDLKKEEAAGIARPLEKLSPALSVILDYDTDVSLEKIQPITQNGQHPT
T3 sequence (P35462 whole entry): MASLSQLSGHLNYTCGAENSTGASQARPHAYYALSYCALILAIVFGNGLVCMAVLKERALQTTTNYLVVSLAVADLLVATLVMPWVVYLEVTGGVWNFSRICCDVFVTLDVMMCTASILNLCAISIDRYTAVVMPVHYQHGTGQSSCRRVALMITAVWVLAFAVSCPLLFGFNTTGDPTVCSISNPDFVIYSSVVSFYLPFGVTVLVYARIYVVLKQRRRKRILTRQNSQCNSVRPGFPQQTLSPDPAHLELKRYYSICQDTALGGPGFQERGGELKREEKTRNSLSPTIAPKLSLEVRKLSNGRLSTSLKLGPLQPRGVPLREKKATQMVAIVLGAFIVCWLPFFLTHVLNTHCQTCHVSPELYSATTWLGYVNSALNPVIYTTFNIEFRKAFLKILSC
Chain of D2-S (short form of D2 receptor) (P14416 1-414 isoform P14416-2): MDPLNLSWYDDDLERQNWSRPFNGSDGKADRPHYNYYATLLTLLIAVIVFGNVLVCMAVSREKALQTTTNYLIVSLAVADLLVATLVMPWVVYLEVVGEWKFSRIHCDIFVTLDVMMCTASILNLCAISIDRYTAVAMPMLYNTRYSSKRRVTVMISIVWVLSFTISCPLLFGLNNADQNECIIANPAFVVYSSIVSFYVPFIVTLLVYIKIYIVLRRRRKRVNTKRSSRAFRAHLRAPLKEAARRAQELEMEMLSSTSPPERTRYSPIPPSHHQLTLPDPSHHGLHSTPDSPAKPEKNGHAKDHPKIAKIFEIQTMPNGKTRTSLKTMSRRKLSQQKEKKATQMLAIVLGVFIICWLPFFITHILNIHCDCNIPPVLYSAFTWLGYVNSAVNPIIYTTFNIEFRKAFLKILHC
Chain of 5-HT1A receptor (Homo sapiens, UniProt P08908) (P08908 whole entry): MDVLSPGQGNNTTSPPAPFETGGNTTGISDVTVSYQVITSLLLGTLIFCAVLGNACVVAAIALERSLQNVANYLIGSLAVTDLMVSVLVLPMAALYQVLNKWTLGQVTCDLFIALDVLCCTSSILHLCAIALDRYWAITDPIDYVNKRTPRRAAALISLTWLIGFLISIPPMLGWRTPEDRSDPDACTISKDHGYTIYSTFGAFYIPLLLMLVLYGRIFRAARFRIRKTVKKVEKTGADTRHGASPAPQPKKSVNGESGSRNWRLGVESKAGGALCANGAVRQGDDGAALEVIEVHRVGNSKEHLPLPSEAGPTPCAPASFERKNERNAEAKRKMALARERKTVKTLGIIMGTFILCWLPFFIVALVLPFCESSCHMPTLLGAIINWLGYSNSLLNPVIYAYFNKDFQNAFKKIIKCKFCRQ

Take `CCNC(=O)N1CCN(CCCC(c2ccc(F)cc2)c2ccc(F)cc2)CC1` [Amperozide]: the “α2 affinity value (−logKi)” value in [1] is 5.5^19. In data set [2], the “5-HT2C/5-HT2A (2C/2A)” value stood at 0.76. Further, in data set [3] (setting [43]), the “(2C/2A) + (2C/D2)” value is reported as 1.67. Also, the “D2-S affinity value (−logKi)” value in data set [4] is listed as 6.5^3. Moreover, the “D2-L affinity value (−logKi)” value in data set [5] is reported as 6.4^3. The “D1 affinity value (−logKi)” value in data set [6] is on record as 5.1^19. In [7], the 5-HT2A/D2 was 1.23. Further, the “H1 affinity value (−logKi)” value in data set [8] is 6.9^19. In addition, the “5-HT2C/D2 (2C/D2)” value in data set [9] was 0.92. In addition, the “α1 affinity value (−logKi)” value in data set [10] was 6.2^19. In [11], the “5-HT6 affinity value (−logKi)” value is given as 7.2^2. Besides, in data set [12], the “mACh affinity value (−logKi)” value was 6.3^19. For the same molecule, the “5-HT3 affinity value (−logKi)” value in data set [13] is listed as <5^19. For the same molecule, in [14], the “5-HT1A affinity value (−logKi)” value is 5.9^19. The H1/D2 in [15] is listed as 1.08. For the same molecule, the “sigma affinity value (−logKi)” value in [16] is recorded as 6.3^19. For the same molecule, the “5-HT7 affinity value (−logKi)” value in [17] is recorded as 6.3^2. Moreover, the “D3 affinity value (−logKi)” value in data set [18] is reported as 6.6^3.

On to `COc1cc(C(C)=O)ccc1OCCCN1CCC(c2noc3cc(F)ccc23)CC1` [Iloperidone], for which the “(2C/2A) + (2C/D2)” value in data set [3] (setting [43]) is listed as 1.79. The “sigma affinity value (−logKi)” value in data set [19] is listed as 7.5^17. Moreover, in [20], the “5-HT1A affinity value (−logKi)” value is 6.8^18. Besides, the “5-HT2C affinity value (−logKi)” value in data set [21] is 7.4^10. For the same molecule, the “D1 affinity value (−logKi)” value in data set [6] is reported as 6.7^10. The “α2 affinity value (−logKi)” value in data set [22] is recorded as 7.5^17. In addition, the “α1 affinity value (−logKi)” value in [23] is 9.6^17. For the same molecule, the “5-HT6 affinity value (−logKi)” value in data set [11] is recorded as 7.4^10. Moreover, the “mACh affinity value (−logKi)” value in [24] is on record as <5^17. Further, the “5-HT7 affinity value (−logKi)” value in data set [17] is 7.7^10. In addition, the “D3 affinity value (−logKi)” value in data set [18] is reported as 8.1^10.

Turning to `Cc1nc2sccn2c(=O)c1CCN1CCC(=C(c2ccc(F)cc2)c2ccc(F)cc2)CC1` [Ritanserin], in data set [25], the “α2 affinity value (−logKi)” value is listed as 7.3^11. Besides, in [26], the “5-HT2C affinity value (−logKi)” value is listed as 9.0^11. In [3] (setting [43]), the “(2C/2A) + (2C/D2)” value is 2.15. Further, the “D1 affinity value (−logKi)” value in [27] is 5.9^11. The “H1 affinity value (−logKi)” value in [28] was 8.2^11. In addition, the “5-HT2C Affinity” value in data set [29] was 9. Besides, the “mACh affinity value (−logKi)” value in [30] is 5.4^11. The “5-HT7 affinity value (−logKi)” value in data set [31] is on record as 7.8^11. The “D3 affinity value (−logKi)” value in data set [32] was 7.1^11. Further, the “D2-L affinity value (−logKi)” value in [33] is recorded as 7.4^11. Moreover, in data set [34], the “D2 Affinity” value is given as 7.4. Also, in data set [35], the “α1 affinity value (−logKi)” value is given as 7.5^11. The “sigma affinity value (−logKi)” value in data set [36] is 6.1^11.

With `O=C1NCCN1CCN1CCC(c2cn(-c3ccc(F)cc3)c3ccc(Cl)cc23)CC1` [Sertindole], the “α2 affinity value (−logKi)” value in [1] is 6.5^19. The “Weight Gain” value in [37] is given as 2-3. For the same molecule, the “(2C/2A) + (2C/D2)” value in data set [3] (Table 4B) amounted to 1.91. Further, the “5-HT1A affinity value (−logKi)” value in data set [20] is 6.6^6. The “D1 affinity value (−logKi)” value in data set [6] is reported as 6.89^19. Besides, the Increases prolactin levels in [38] is 3. The Improvement negative symptoms in data set [39] is recorded as 2. In [10], the “α1 affinity value (−logKi)” value was 8.7^19. Besides, the “sigma affinity value (−logKi)” value in [40] is listed as 6.9^6. Further, in data set [12], the “mACh affinity value (−logKi)” value is given as <5.6^19. Besides, the “5-HT6 affinity value (−logKi)” value in [41] is listed as 9.13^19. In addition, the Extra-pyramidal side effects in [42] is 3.
